Source: the Deep4Chem optical property database

Test: photoluminescence quantum yield (fraction); solvent given as SMILES
[1] = in c1cc(-c2cccc(-n3c4ccccc4c4ccccc43)c2)cc(-n2c3ccccc3c3ccccc32)c1

Work on c1cc2c3c(cccc3c1)C(N1CCOCCOCCOCCOCC1)=N2 yielded a photoluminescence quantum yield (in CC#N) of 0.004.

Cc1cc(C)c2nc3c(=O)[nH]c(=O)[nH]c3nc2c1 showed a photoluminescence quantum yield (in CC#N) of 0.02.

Molecule c1ccc(-c2nnc(-c3ccc(N4c5ccccc5Oc5ccccc54)cc3)n2-c2ccccc2)cc1 has a photoluminescence quantum yield (in Cc1ccccc1) of 0.127.

CCCCCCN1C(=O)c2cccc3c(-c4ccc(-c5cc(-c6ccc(Cl)cc6)n(-c6ccccc6)n5)s4)ccc(c23)C1=O gave a photoluminescence quantum yield (in ClCCl) of 0.33.

In the case of F[B-]1(F)n2c(c3ccccc3c2-c2ccccc2)N=C2c3ccccc3C(c3ccccc3)=[N+]21, the photoluminescence quantum yield (in ClCCl) was 0.14.

CCCC1(CCC)c2cc(-c3ccc(-c4ccc(OC)cc4)o3)ccc2-c2ccc(-c3ccc(-c4ccc(OC)cc4)o3)cc21 showed a photoluminescence quantum yield (in C1CCCCC1) of 0.79.

CC(=O)c1ccc(C#Cc2ccc(-c3cc(N(C)C)c4ccccc4c3)cc2)cc1 showed a photoluminescence quantum yield (in ClCCl) of 0.03.

CC(C)(C)c1ccc(-c2cc(-c3ccc(-c4cc(-c5ccc(C(C)(C)C)cc5)c(C(=O)N5CCOCC5)s4)s3)sc2C(=O)N2CCOCC2)cc1 showed a photoluminescence quantum yield (in ClCCl) of 0.26.

Molecule CCC(CC)COC1=CC2=C3c4cc(OCC(CC)CC)c(-c5ccccc5)n4[B-](F)(F)[n+]4c3n(c3cc(C(C)(C)C)ccc34)[B-](F)(F)[N+]2=C1c1ccccc1 has a photoluminescence quantum yield (in C1CCOC1) of 0.11 and a photoluminescence quantum yield (in ClCCl) of 0.13.

COc1cc(/C=C2/SC(=O)NC2=O)cc(OC)c1O showed a photoluminescence quantum yield (in C1CCCCC1) of 0.032, a photoluminescence quantum yield (in C1COCCO1) of 0.03 and a photoluminescence quantum yield (in CC#N) of 0.02. The photoluminescence quantum yield (in CN(C)C=O) was 0.042, the photoluminescence quantum yield (in CO) was 0.034 and the photoluminescence quantum yield (in O) was 0.027. It also gave a photoluminescence quantum yield (in OCC(O)CO) of 0.38 and a photoluminescence quantum yield (in OCCO) of 0.108.

For c1ccc(-c2ncc3ccccn23)cc1, the photoluminescence quantum yield (in ClC(Cl)Cl) was 0.05.

In the case of CC(=O)OC[C@@H]1O[C@H](N2C=CC3=Nc4nc(C)[n+](C)cc4CN3C2=O)[C@@H](O)[C@H]1O, the photoluminescence quantum yield (in CC#N) was 0.89, the photoluminescence quantum yield (in CCO) was 0.05 and the photoluminescence quantum yield (in O) was 0.2.

In the case of CC1(C)[C@@H]2CC[C@]1(C)c1nc3cc(-c4cccs4)ccc3nc12, the photoluminescence quantum yield (in CC#N) was 0.06, the photoluminescence quantum yield (in CCCCO) was 0.35 and the photoluminescence quantum yield (in CCO) was 0.37. For the same molecule, the photoluminescence quantum yield (in CCOC(C)=O) was 0.02, the photoluminescence quantum yield (in CO) was 0.52 and the photoluminescence quantum yield (in Cc1ccccc1) was 0.01. For the same molecule, the photoluminescence quantum yield (in ClC(Cl)Cl) was 0.11 and the photoluminescence quantum yield (in ClCCl) was 0.05.

For COC(=O)C(CCCCNC(=O)CCNc1cccc2ccccc12)NC(C)=O (stereo unspecified), the photoluminescence quantum yield (in CCO) was 0.54.

Work on CN(C)c1ccc(/C=C/c2ccccc2)cc1 yielded a photoluminescence quantum yield (in CC#N) of 0.04 and a photoluminescence quantum yield (in CCCCCC) of 0.03.

Work on Fc1c(-n2c3ccccc3c3ccccc32)c(-c2nnc(-c3ccccc3)o2)c(-n2c3ccccc3c3ccccc32)c(-n2c3ccccc3c3ccccc32)c1-n1c2ccccc2c2ccccc21 yielded a photoluminescence quantum yield (in Cc1ccccc1) of 0.1.

CCCCCCC1(CCCCCC)c2cc(-c3nc(-c4ccc5c(c4)C(CCCCCC)(CCCCCC)c4cc(N6c7ccccc7Oc7ccccc76)ccc4-5)nc(-c4ccc5c(c4)C(CCCCCC)(CCCCCC)c4cc(N6c7ccccc7Oc7ccccc76)ccc4-5)n3)ccc2-c2ccc(N3c4ccccc4Oc4ccccc43)cc21 gave a photoluminescence quantum yield (in C1CCOC1) of 0.02, a photoluminescence quantum yield (in CCCCCC) of 0.52 and a photoluminescence quantum yield (in Cc1ccccc1) of 0.45. The photoluminescence quantum yield (in ClCCl) was 0.01.

C[N+]1=C(/C=C/C=C2/N(CCC[N+](C)(C)C)c3ccc(S(=O)(=O)[O-])cc3C2(C)C)C(C)(C)c2ccccc21 showed a photoluminescence quantum yield (in CS(C)=O) of 0.1.

Molecule O=c1c2ccc(-c3ccc(N(c4ccccc4)c4ccccc4)cc3)cc2sc2cc(-c3ccc(N(c4ccccc4)c4ccccc4)cc3)ccc12 has a photoluminescence quantum yield (in c1ccc2c(c1)c1ccccc1n2-c1ccc(-c2ccc(-n3c4ccccc4c4ccccc43)cc2)cc1) of 0.35.

With COc1ccc2c(c1)sc1[n+]2[B-](F)(F)OC(c2ccc(N(C)C)cc2)=N1 the photoluminescence quantum yield (in C1CCOC1) was 0.8, the photoluminescence quantum yield (in CC#N) was 0.38 and the photoluminescence quantum yield (in CC(C)=O) was 0.56. The photoluminescence quantum yield (in Cc1ccccc1) was 0.88 and the photoluminescence quantum yield (in ClCCl) was 0.83.

O=c1oc2ccccc2c2cc(N3c4ccccc4Oc4ccccc43)ccc12 showed a photoluminescence quantum yield [1] of 0.52.

Work on O=C1c2ccc3c4c(-c5ccccc5)cc5c6c(ccc(c7c(-c8ccccc8)cc(c2c37)C(=O)N1C1CCCCC1)c64)C(=O)N(C1CCCCC1)C5=O yielded a photoluminescence quantum yield (in ClC(Cl)Cl) of 0.186.

C(=C\c1nc2ccccc2s1)/c1ccc(-c2nc3c4cccnc4c4ncccc4c3[nH]2)cc1 showed a photoluminescence quantum yield (in C1CCOC1) of 0.33, a photoluminescence quantum yield (in CC#N) of 0.17 and a photoluminescence quantum yield (in CO) of 0.11. For the same molecule, the photoluminescence quantum yield (in ClCCl) was 0.25.

Work on Brc1ccc2[nH]c(-c3ccc(-c4ccc(-c5ccc(-c6nc7cc(Br)ccc7[nH]6)cc5)cc4)cc3)nc2c1 yielded a photoluminescence quantum yield (in CN(C)C=O) of 0.42.

Cc1cc(C)c2c(c1)c1cc(C)cc(C)c1n2-c1ccc2c(c1)B(c1c(C(C)C)cc(C(C)C)cc1C(C)C)c1cc(-n3c4c(C)cc(C)cc4c4cc(C)cc(C)c43)ccc1N2c1ccccc1 showed a photoluminescence quantum yield [1] of 0.56.

CC(C)(C)c1ccc(-c2ccc(C(C)(C)C)cc2)cc1 showed a photoluminescence quantum yield (in C1CCCCC1) of 0.26.

With CC(C)c1cccc(C(C)C)c1N1C(=O)c2cc(Cl)c3c4c(Cl)cc5c6c(cc(Cl)c(c7c(Cl)cc(c2c37)C1=O)c64)C(=O)N(c1c(C(C)C)cccc1C(C)C)C5=O the photoluminescence quantum yield (in Cc1ccccc1) was 0.95.

Molecule CC(C)(C)c1ccc(C(C)(C)C)c(N2C(=O)c3cccc4c(-c5ccc(-c6ccccc6)s5)ccc(c34)C2=O)c1 has a photoluminescence quantum yield (in CO) of 0.34, a photoluminescence quantum yield (in CS(C)=O) of 0.43 and a photoluminescence quantum yield (in Cc1ccccc1) of 0.06.

Work on Cc1cscc1-c1cc2c3cc(-c4cscc4C)c4nc(C(F)(F)C(F)(F)C(F)(F)F)nc5c(-c6cscc6C)cc(c6cc(-c7cscc7C)c7nc(C(F)(F)C(F)(F)C(F)(F)F)nc1c7c26)c3c45 yielded a photoluminescence quantum yield (in C1CCOC1) of 0.33.

Work on COc1cc2sc3nc(-c4ccccc4)sc3c2cc1OC yielded a photoluminescence quantum yield (in CS(C)=O) of 0.52.

With CC1(C)c2ccccc2-c2cc3c4cc(-n5c6ccccc6c6ccccc65)ccc4n(-c4ccc(-c5nc(-c6ccccc6)nc(-c6ccccc6)n5)cc4)c3cc21 the photoluminescence quantum yield (in O=P(c1ccccc1)(c1ccccc1)c1ccccc1Oc1ccccc1P(=O)(c1ccccc1)c1ccccc1) was 0.84.
